Assay [1] concerns GFAP. The experiment in a line: GFAP immunoreactivity in hippocampal CA1 area (immunostaining, immunoblotting). Type of assay: in vivo, rat. Here is the method:
(§1) Animals were divided into several groups ([…]). The Aβ1-40 group received bilateral intracerebral microinjection of Aβ1-40 fibrils once and saline intraperitoneally (i.p.) daily for 14 days. The Aβ1-40+MDA7 group received bilateral intracerebral microinjection of Aβ1-40 fibrils once and 15 mg/kg MDA7 i.p. daily for 14 days. Other cohorts received smaller doses of MDA7 (5 mg/kg or 1.5 mg/kg) i.p. daily for 14 days to determine the dose-response characteristics for MDA7. In other groups, AM630 (a CB2 antagonist) 5 mg/kg i.p. was administered daily for 14 days either alone (Aβ1-40+AM630 group) or 15 min prior to MDA7 (15 mg/kg i.p.) administration (Aβ1-40+MDA7+AM630 group) to rats injected with β1-40 fibrils. MDA7 group and control group received bilateral intracerebral microinjection of artificial cerebrospinal fluid (130 mM NaCl, 2.6 mM KCl. 4.3 mM MgCl2 and 1.8 mM CaCl2) once and 15 mg/kg MDA7 or saline i.p. daily for 14 days, respectively. Intraperitoneal administration of AM630, MDA7 or saline started on the same day after intracerebral microinjection of Aβ1-40. All drugs were prepared coded. Decoding was performed at the end of all experiments.
Microinjection of amyloid fibrils into the hippocampal CA1 area. Rats were anesthetized with sodium pentobarbital (45 mg/kg i.p.) and restrained in a stereotaxic apparatus. Aβ1-40 fibrils were formed as described previously. […]
Immunostaining. […] Three to six sections from each rat were randomly selected and were analyzed using Leica DMLB fluorescence microscope (Leica Microsystems Wetzlar GmbH, Germany) by one investigator, who was blinded to the origin of tissue being examined. Images were quantified using MCID Core software version 7.0 (InterFocus Imaging Ltd, Cambridge, England). […]
A general note: In western blotting, separated proteins are transferred to a membrane and probed.

Assay [2] deals with T1, rCB2 (Rattus norvegicus, UniProt Q9QZN9).
T1 sequence (Q9QZN9 1-360): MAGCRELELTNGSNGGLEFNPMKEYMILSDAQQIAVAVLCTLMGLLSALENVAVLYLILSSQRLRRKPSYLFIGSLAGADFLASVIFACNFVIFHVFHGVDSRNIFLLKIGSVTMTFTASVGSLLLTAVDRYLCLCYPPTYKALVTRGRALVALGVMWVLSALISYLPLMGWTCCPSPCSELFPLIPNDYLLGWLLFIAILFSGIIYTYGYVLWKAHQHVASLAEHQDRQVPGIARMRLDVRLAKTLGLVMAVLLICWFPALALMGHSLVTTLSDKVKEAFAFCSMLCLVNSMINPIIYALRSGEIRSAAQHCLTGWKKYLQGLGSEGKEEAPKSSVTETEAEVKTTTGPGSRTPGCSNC
To be noted: cited from earlier work.

Assay [3] has as its system cognitive impairment induced by Aβ1-40. The experiment in a line: Morris water maze test in rats microinjected with Aβ1-40 fibrils. Type of assay: in vivo, rat. On the procedure: Animals and treatment protocol. All animal procedures were approved by the Animal Care and Use Committee of Cleveland Clinic. Animals were housed the Institutional Biological Rodent Unit on a 12/12 h light/dark cycle with water and food pellets available ad libitum. Adult male Sprague-Dawley (Charles River, Wilmington, Mass.) rats weighing 200-250 g were used, and all experiments were performed during the light cycle.
as §1
Microinjection of amyloid fibrils into the hippocampal CA1 area. Rats were anesthetized with sodium pentobarbital (45 mg/kg i.p.) and restrained in a stereotaxic apparatus. Aβ1-40 fibrils were formed as described previously. Chacon, et al., Mol Psychiatry 9(10), 953-61 (2004), Aβ1-40 fibrils (10 μg/3 μl) or 3 μl of artificial cerebrospinal fluid were injected stereotaxically and bilaterally into each hippocampus (coordinates; Bregma −3.5 mm anteroposterior, ±2.0 mm mediolateral, and −3.0 mm dorsoventral) using a 10 μl Hamilton syringe with a 27 G stainless steel needle at a rate of 0.5 μl/min. This experimental model has been used for studying AD. Ahmed, et al., Neuroscience 169(3), 1296-306 (2010).
Morris water maze test. A cohort of rats (n=10 per group) was tested 15 days after surgery as described by Chacon et al. (ibid). Testing was conducted in all groups at the same time of the day. The experimental apparatus consisted of a circular pool (120 cm in diameter, 45 cm high). An invisible platform (15 cm in diameter, 35 cm high) was placed 1.5 cm below the surface of the water. The water temperature was kept at 24-28° C. The pool was located in a test room, and many clues external to the maze were visible from the pool, which could be used by the rats for spatial orientation. The position of the cues was kept constant throughout the task. Each rat underwent four trials per day for five days. During each trial (memory acquisition), the rats were placed randomly at one of four fixed starting points and were allowed to swim for 120 s or until they escaped from the water by reaching the platform. The platform was located in the same position throughout the test in the middle of one quadrant. The start location was moved to a different quadrant in each trial so that no single start location was used in consecutive trials. In each training session, the latency to escape to the hidden platform was recorded. After the rats reached the platform, they were allowed to rest there for 20 seconds, and they then were removed from the pool. An inter-trial interval of at least 4 minutes was used to ensure that each rat's performance was not impaired by fatigue. After completing four trials, the rats were removed from the pool, dried and returned to their home cage. […]

The structures appear in SMILES notation. “Also recorded” adds a separate entry of the source.

In general, EC50 refers to the concentration giving half of the maximal effect. As for `CC1(Cc2ccccc2)COc2cc(C(=O)N3CCCCC3)ccc21` (stereo not drawn) [MDA7, 3-benzyl-3-methyl-2,3-dihydrobenzofuran-6-carboxylic acid-piperidine amide], the GFAP immunofluorescence intensity entry in assay [1] (Aβ1-40-injected rats, 15 mg/kg i.p. for 14 days, vs saline, hippocampal CA1) is “significantly less”. In assay [1] (Aβ-injected rats, 14 days i.p. (15 mg/kg), vs saline, hippocampal CA1), the “GFAP protein expression (immunoblot)” value is recorded as “significantly attenuated”. In addition, in assay [1] (rats without Aβ1-40, compared to control rats), the “GFAP expression, treatment alone” value is “no significant effect”. Further, the EC50 in assay [2] is 0.067 µM. In addition, the “escape latency / memory enhancement in the Morris water maze test” value was “did not result in any significant memory enhancement” in assay [3] (Aβ1-40 fibril-injected rats, 1.5 mg/kg i.p. daily for 14 days); “limited only to days 3 and 5” in assay [3] (Aβ1-40 fibril-injected rats, 5 mg/kg i.p. daily for 14 days). For the same compound, in assay [3] (Aβ1-40 fibril-injected rats, 15 mg/kg i.p. daily for 14 days, vs i.p. saline, days 3-5), the “escape latency in the Morris water maze test” value was “significantly shorter escape latency”. Moreover, in assay [3] (Aβ1-40 fibril-injected rats, 15 mg/kg i.p. for 14 days, vs i.p. saline, day 6, 15 mg/kg), the “probe trial, time spent in the target quadrant” value is given as “spent the longest time in the target quadrant; also recorded: significantly longer time in the target quadrant”. Further, the “escape latency, treatment alone” value in assay [3] (rats microinjected with artificial cerebrospinal fluid, 15 mg/kg for 14 days vs saline i.p.) is on record as “no significant difference”.

The values above are taken from patent publication US11160798B2, “Neuroprotective CB2 receptor agonists” (THE CLEVELAND CLINIC FOUNDATION, priority 2012, dated 2021).
